Holding throughout (assay type): in vivo
In assay [1] the test system is Diabrotica balteata. The assay can be described thus: Diabrotica balteata drench test (DIABBA). The note with it: soil, 192 h, 8 dat, read-out: % efficacy. On the procedure: [table] To produce an appropriate active ingredient formulation, 1 part by weight of active ingredient is mixed with the specified amounts of solvent and emulsifier and the concentrate is diluted to the desired concentration with water, it being necessary to take into account the volume of soil into which drenching is effected. It should be ensured that a concentration of 40 ppm of emulsifier in the soil is not exceeded. For production of further test concentrations, the mixture is diluted with water. 5 maize kernels in each case are sown into soil-filled pots (Zea mays) and, the next day, drenched with the active ingredient formulation of the desired concentration. After one day, about 25 L2 larvae of the banded cucumber beetle (Diabrotica balteata) were added. After 8 days, the efficacy in % is determined. 100% means that all 5 plants have germinated and grown; 0% means that no plant has emerged.

Assay [2] deals with Meloidogyne incognita. The assay can be described thus: Meloidogyne incognita drench test (MELGIN D). Particulars: soil, 504 h, 21 dat, read-out: % efficacy. On the procedure: [table] To produce an appropriate active ingredient formulation, 1 part by weight of active ingredient is mixed with the specified amounts of solvent and emulsifier and the concentrate is diluted to the desired concentration with water, it being necessary to take into account the volume of soil into which drenching is effected. It should be ensured that a concentration of 20 ppm of emulsifier in the soil is not exceeded. For production of further test concentrations, the mixture is diluted with water. Pots filled with soil (loamy sand) are drenched with the active ingredient solution. An egg/larvae suspension of the southern root-knot nematode (Meloidogyne incognita) is added, and lettuce seeds are scattered over the soil surface and covered with quartz sand. The lettuce seeds germinate and the seedlings develop. The root-knots develop on the roots. After the desired time, the nematicidal effect is determined with reference to the root-knot formation in %. 100% means that no root-knots were found; 0% means that the number of root-knots on the treated plants corresponds to that on the untreated control.

Assay [3] concerns Spodoptera frugiperda. Kind of assay: Spodoptera frugiperda spray test. Particulars: 100 g/ha, after 6 days. On the procedure:
[table] To produce a suitable active ingredient formulation, 1 part by weight of active ingredient is dissolved with the specified parts by weight of solvent and made up to the desired concentration with water containing an emulsifier concentration of 1000 ppm. To produce further test concentrations, the formulation is diluted with emulsifier-containing water. Leaf discs of maize (Zea mays) are sprayed with an active ingredient formulation of the desired concentration and, after drying, populated with caterpillars of the armyworm (Spodoptera frugiperda). After 6 days, the efficacy in % is determined. 100% means that all the caterpillars have been killed; 0% means that no caterpillar has been killed.

Molecules are shown by their SMILES.

For the molecule `CCS(=O)(=O)c1ccc(NC(=O)NC)nc1-c1nc2cc(C(F)(F)C(F)(F)F)nnc2n1C` [Example I-08, 1-{5-(ethylsulfonyl)-6-[7-methyl-3-(pentafluoroethyl)-7H-imidazo[4,5-c]pyridazin-6-yl]pyridin-2-yl}-3-methylurea], the Emax at 20 ppm in assay [1] was determined as 100%. For the same molecule, the Emax at 1 ppm in assay [2] (1 ppm) was determined as 100%. Also, the Emax at 2 ppm in assay [2] (2 ppm) came out at 100%.

`CCNC(=O)Nc1ccc(S(=O)(=O)CC)c(-c2nc3cc(C(F)(F)C(F)(F)F)nnc3n2C)n1` [Example I-13]: the efficacy in assay [3] was found to be 83%.

The values above are taken from patent US11089783B2, “2-(het)aryl-substituted fused heterocycle derivatives as pesticides” (Bayer Aktiengesellschaft, priority 2017, dated 2021).
